Assay results taken from patent US12129237B2, “Substituted diaminocarboxamide and diaminocarbonitrile pyrimidines, compositions thereof, and methods of treatment therewith” (SIGNAL PHARMACEUTICALS, LLC, priority 2011, dated 2024).

Target: T1, JNK1 (Homo sapiens, UniProt P45983)
T1 construct: purchased Carna Biosciences
Experiment: JNK1 biochemical assays (one or more of: time resolved fluorescence, Z'-LYTE Cascade, radioactive)
Details: tested in one or more of the JNK1 biochemical assays; read-out: Act. Level (JNK1 biochemical assay IC50 activity level)

T1 sequence (P45983 whole entry): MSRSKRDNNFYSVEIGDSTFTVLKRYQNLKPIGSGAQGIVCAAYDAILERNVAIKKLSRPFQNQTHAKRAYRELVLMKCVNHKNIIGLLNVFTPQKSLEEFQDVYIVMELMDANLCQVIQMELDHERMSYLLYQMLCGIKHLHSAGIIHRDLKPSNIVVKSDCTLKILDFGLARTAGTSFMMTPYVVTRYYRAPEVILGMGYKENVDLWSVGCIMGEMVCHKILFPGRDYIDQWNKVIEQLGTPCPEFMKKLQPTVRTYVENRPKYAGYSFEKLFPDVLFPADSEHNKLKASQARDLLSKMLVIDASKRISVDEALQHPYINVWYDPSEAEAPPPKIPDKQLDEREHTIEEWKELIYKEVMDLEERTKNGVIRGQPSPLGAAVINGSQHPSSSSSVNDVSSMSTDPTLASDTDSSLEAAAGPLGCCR

Row | SMILES | IC50 [nM]
1 | CO[C@H]1CC[C@H](Nc2ncc(C(N)=O)c(N[C@H]3CC[C@H](NC(C)=O)CC3)n2)CC1 [Example A-38, 4-((1r,4r)-4-acetamidocyclohexylamino)-2-((1r,4r)-4-methoxycyclohexylamino)pyrimidine-5-carboxamide] | < 200
2 | CC(=O)N[C@H]1CC[C@H](Nc2ncc(C(N)=O)c(N[C@@H]3CCC[C@H](O)C3)n2)CC1 [Example A-39, 2-((1r,4R)-4-acetamidocyclohexylamino)-4-((1R,3S)-3-hydroxycyclohexylamino)pyrimidine-5-carboxamide] | < 200
3 | CO[C@H]1CC[C@H](Nc2ncc(C(N)=O)c(N[C@@H]3CC[C@H](O)C3)n2)CC1 [Example A-46, 4-((1R,3S)-3-hydroxycyclopentylamino)-2-((1r,4R)-4-methoxycyclohexylamino)pyrimidine-5-carboxamide] | < 200
4 | CO[C@H]1CC[C@H](Nc2ncc(C(N)=O)c(N[C@@H]3CCCNC3)n2)CC1 [Example A-47, 2-((1r,4R)-4-methoxycyclohexylamino)-4-((R)-piperidin-3-ylamino)pyrimidine-5-carboxamide] | < 200
5 | CO[C@H]1CC[C@H](Nc2ncc(C(N)=O)c(N[C@H]3CCCNC3)n2)CC1 [Example A-48, 2-((1r,4S)-4-methoxycyclohexylamino)-4-((S)-piperidin-3-ylamino)pyrimidine-5-carboxamide] | 800 to 1000
6 | CN[C@H]1CC[C@H](Nc2ncc(C(N)=O)c(N[C@@H]3CCC[C@H](O)C3)n2)CC1 [Example A-49, 4-((1R,3S)-3-hydroxycyclohexylamino)-2-((1r,4R)-4-(methylamino)cyclohexylamino)pyrimidine-5-carboxamide] | < 200
7 | NC(=O)c1cnc(N[C@@H]2CCCOC2)nc1N[C@@H]1CCC[C@H](O)C1 [Example A-50, 4-((1R,3S)-3-hydroxycyclohexylamino)-2-((R)-tetrahydro-2H-pyran-3-ylamino)pyrimidine-5-carboxamide] | < 200
8 | CC(C)Nc1ncc(C(N)=O)c(N[C@@H]2CCC[C@H](O)C2)n1 [Example A-51, 4-((1R,3S)-3-hydroxycyclohexylamino)-2-(isopropylamino)pyrimidine-5-carboxamide] | < 200
9 | NC(=O)c1cnc(N[C@H]2CCCOC2)nc1N[C@@H]1CCC[C@H](O)C1 [Example A-52, 4-((1R,3S)-3-hydroxycyclohexylamino)-2-((S)-tetrahydro-2H-pyran-3-ylamino)pyrimidine-5-carboxamide] | < 200
10 | CO[C@H]1CC[C@H](Nc2ncc(C(N)=O)c(NC3CCOCC3)n2)CC1 [Example A-55, 2-((1r,4r)-4-methoxycyclohexylamino)-4-(tetrahydro-2H-pyran-4-ylamino)pyrimidine-5-carboxamide] | 200 to 800
11 | CNC(=O)[C@H]1CC[C@H](Nc2ncc(C(N)=O)c(N[C@@H]3CCC[C@H](O)C3)n2)CC1 [Example A-56, 4-((1R,3S)-3-hydroxycyclohexylamino)-2-((1r,4R)-4-(methylcarbamoyl)cyclohexylamino)pyrimidine-5-carboxamide] | < 200
12 | NC(=O)c1cnc(NC2CCOCC2)nc1N[C@@H]1CCC[C@H](O)C1 [Example A-57, 4-((1R,3S)-3-hydroxycyclohexylamino)-2-(tetrahydro-2H-pyran-4-ylamino)pyrimidine-5-carboxamide] | < 200
13 | CCO[C@H]1CC[C@H](Nc2ncc(C(N)=O)c(NC3CCC[C@H](O)C3)n2)CC1 (stereo partly drawn) [Example A-58, 2-((1r,4R)-4-ethoxycyclohexylamino)-4-((1R,3S)-3-hydroxycyclohexylamino)pyrimidine-5-carboxamide] | < 200
14 | CCO[C@H]1CC[C@H](Nc2ncc(C(N)=O)c(N[C@H]3CCC[C@@H](O)C3)n2)CC1 [Example A-59, 2-((1r,4S)-4-ethoxycyclohexylamino)-4-((1S,3R)-3-hydroxycyclohexylamino)pyrimidine-5-carboxamide] | < 200
15 | CCO[C@H]1CC[C@H](Nc2ncc(C(N)=O)c(N[C@H]3CCCOC3)n2)CC1 [Example A-60, 2-((1r,4S)-4-ethoxycyclohexylamino)-4-((S)-tetrahydro-2H-pyran-3-ylamino)pyrimidine-5-carboxamide] | < 200
16 | CCO[C@H]1CC[C@@H](Nc2ncc(C(N)=O)c(N[C@H]3CCC[C@@H]3O)n2)CC1 [Example A-62, 2-((1s,4R)-4-ethoxycyclohexylamino)-4-((1S,2S)-2-hydroxycyclopentylamino)pyrimidine-5-carboxamide] | 800 to 1000
17 | CCO[C@H]1CC[C@H](Nc2ncc(C(N)=O)c(N[C@H]3CCC[C@H]3O)n2)CC1 [Example A-63, 2-((1r,4S)-4-ethoxycyclohexylamino)-4-((1S,2R)-2-hydroxycyclopentylamino)pyrimidine-5-carboxamide] | 200 to 800
18 | CCO[C@H]1CC[C@H](Nc2ncc(C(N)=O)c(N[C@H]3CCC[C@@H]3O)n2)C1 [Example A-64, 2-((1S,3S)-3-ethoxycyclopentylamino)-4-((1S,2S)-2-hydroxycyclopentylamino)pyrimidine-5-carboxamide] | 200 to 800

Row | SMILES | IC50 [nM]
19 | CO[C@H]1CC[C@H](Nc2ncc(C(N)=O)c(N[C@@H]3CCC[C@H]3O)n2)CC1 [Example A-65, 4-((1R,2R)-2-hydroxycyclopentylamino)-2-((1r,4R)-4-methoxycyclohexylamino)pyrimidine-5-carboxamide] | < 200
20 | CCO[C@H]1CC[C@H](Nc2ncc(C(N)=O)c(NC3CCC[C@H]3O)n2)CC1 (stereo partly drawn) [Example A-66, 2-((1r,4R)-4-ethoxycyclohexylamino)-4-((1R,2R)-2-hydroxycyclopentylamino)pyrimidine-5-carboxamide] | < 200
21 | CCO[C@H]1CC[C@H](Nc2ncc(C(N)=O)c(NC[C@@H](C)O)n2)CC1 [Example A-67, 2-((1r,4R)-4-ethoxycyclohexylamino)-4-((R)-2-hydroxypropylamino)pyrimidine-5-carboxamide] | < 200
22 | CC(C)CC(=O)N1CCC(Nc2ncc(C(N)=O)c(N[C@H]3C[C@@H](O)C3)n2)CC1 [Example A-68, 4-((1s,3s)-3-hydroxycyclobutylamino)-2-(1-(3-methylbutanoyl)piperidin-4-ylamino)pyrimidine-5-carboxamide] | < 200
23 | CO[C@H]1CC[C@H](Nc2ncc(C(N)=O)c(N[C@H]3CC[C@@](C)(O)CC3)n2)CC1 [Example A-69, 4-((1s,4s)-4-hydroxy-4-methylcyclohexylamino)-2-((1r,4r)-4-methoxycyclohexylamino)pyrimidine-5-carboxamide] | < 200
24 | NC(=O)c1cnc(N[C@H]2CC[C@](O)(c3ccccc3)CC2)nc1N[C@H]1CCC[C@@H]1O [Example A-70, 2-((1s,4R)-4-hydroxy-4-phenylcyclohexylamino)-4-((1S,2S)-2-hydroxycyclopentylamino)pyrimidine-5-carboxamide] | 200 to 800
25 | CCO[C@H]1CC[C@H](Nc2ncc(C(N)=O)c(NCCO)n2)CC1 [Example A-71, 2-((1r,4r)-4-ethoxycyclohexylamino)-4-(2-hydroxyethylamino)pyrimidine-5-carboxamide] | < 200
26 | CCO[C@H]1CC[C@H](Nc2ncc(C(N)=O)c(N[C@@H]3CCCOC3)n2)CC1 [Example A-72, 2-((1r,4R)-4-ethoxycyclohexylamino)-4-((R)-tetrahydro-2H-pyran-3-ylamino)pyrimidine-5-carboxamide] | < 200
27 | CCO[C@H]1CCC[C@@H]1Nc1nc(N[C@H]2CC[C@H](OCC)CC2)ncc1C(N)=O [Example A-73, 2-((1r,4S)-4-ethoxycyclohexylamino)-4-((1S,2S)-2-ethoxycyclopentylamino)pyrimidine-5-carboxamide] | < 200
28 | CCO[C@H]1C[C@H](Nc2ncc(C(N)=O)c(N[C@H]3CCC[C@@H]3O)n2)C1 [Example A-74, 2-((1r,3S)-3-ethoxycyclobutylamino)-4-((1S,2S)-2-hydroxycyclopentylamino)pyrimidine-5-carboxamide] | 200 to 800
29 | NC(=O)c1cnc(N[C@H]2CC[C@H](OCCF)CC2)nc1N[C@H]1CCC[C@@H]1O [Example A-75, 2-((1r,4S)-4-(2-fluoroethoxy)cyclohexylamino)-4-((1S,2S)-2-hydroxycyclopentylamino)pyrimidine-5-carboxamide] | < 200
30 | CCO[C@@H]1CC[C@@H](Nc2ncc(C(N)=O)c(N[C@H]3CCC[C@@H]3O)n2)C1 [Example A-76, 2-((1R,3R)-3-ethoxycyclopentylamino)-4-((1S,2S)-2-hydroxycyclopentylamino)pyrimidine-5-carboxamide] | 200 to 800
31 | CCO[C@H]1CC[C@H](Nc2ncc(C(N)=O)c(N[C@H]3CCCC[C@@H]3O)n2)CC1 [Example A-77, 2-((1r,4S)-4-ethoxycyclohexylamino)-4-((1S,2S)-2-hydroxycyclohexylamino)pyrimidine-5-carboxamide] | < 200
32 | CO[C@H]1CC[C@H](Nc2ncc(C(N)=O)c(NC3(CO)CCCC3)n2)CC1 [Example A-78, 4-(1-(hydroxymethyl)cyclopentylamino)-2-((1r,4r)-4-methoxycyclohexylamino)pyrimidine-5-carboxamide] | < 200
33 | CC1(Nc2nc(N[C@H]3CC[C@H](O)CC3)ncc2C(N)=O)CCOCC1 [Example A-79, 2-((1r,4r)-4-hydroxycyclohexylamino)-4-(4-methyltetrahydro-2H-pyran-4-ylamino)pyrimidine-5-carboxamide] | < 200
34 | CO[C@H]1CC[C@H](Nc2ncc(C(N)=O)c(N[C@H]3CC[C@@H](O)C3)n2)CC1 [Example A-80, 4-((1S,3R)-3-hydroxycyclopentylamino)-2-((1r,4S)-4-methoxycyclohexylamino)pyrimidine-5-carboxamide] | < 200
35 | CO[C@H]1CC[C@@H](Nc2nc(N[C@H]3CC[C@H](O)C3)ncc2C(N)=O)CC1 [Example A-81, 2-((1S,3S)-3-hydroxycyclopentylamino)-4-((1s,4R)-4-methoxycyclohexylamino)pyrimidine-5-carboxamide] | < 200
36 | COC[C@H]1CC[C@H](Nc2ncc(C(N)=O)c(NC3CCN(C(C)=O)CC3)n2)CC1 [Example A-82, 4-(1-acetylpiperidin-4-ylamino)-2-((1r,4r)-4-(methoxymethyl)cyclohexylamino)pyrimidine-5-carboxamide] | 200 to 800
